SMILES strings stand for the structures. Where a name gives a salt, the structure may show the parent alone.

The text below walks through data of US11780830B2, “Triazolone derivatives or salts thereof and pharmaceutical compositions comprising the same” (YUHAN CORPORATION, priority 2018, dated 2023).

Type in all cases: biochemical
Test [1] deals with T1, recombinant human VAP-1 (Homo sapiens, UniProt Q16853).
T1 construct: purchased R&D systems
T1 sequence (Q16853 1-763): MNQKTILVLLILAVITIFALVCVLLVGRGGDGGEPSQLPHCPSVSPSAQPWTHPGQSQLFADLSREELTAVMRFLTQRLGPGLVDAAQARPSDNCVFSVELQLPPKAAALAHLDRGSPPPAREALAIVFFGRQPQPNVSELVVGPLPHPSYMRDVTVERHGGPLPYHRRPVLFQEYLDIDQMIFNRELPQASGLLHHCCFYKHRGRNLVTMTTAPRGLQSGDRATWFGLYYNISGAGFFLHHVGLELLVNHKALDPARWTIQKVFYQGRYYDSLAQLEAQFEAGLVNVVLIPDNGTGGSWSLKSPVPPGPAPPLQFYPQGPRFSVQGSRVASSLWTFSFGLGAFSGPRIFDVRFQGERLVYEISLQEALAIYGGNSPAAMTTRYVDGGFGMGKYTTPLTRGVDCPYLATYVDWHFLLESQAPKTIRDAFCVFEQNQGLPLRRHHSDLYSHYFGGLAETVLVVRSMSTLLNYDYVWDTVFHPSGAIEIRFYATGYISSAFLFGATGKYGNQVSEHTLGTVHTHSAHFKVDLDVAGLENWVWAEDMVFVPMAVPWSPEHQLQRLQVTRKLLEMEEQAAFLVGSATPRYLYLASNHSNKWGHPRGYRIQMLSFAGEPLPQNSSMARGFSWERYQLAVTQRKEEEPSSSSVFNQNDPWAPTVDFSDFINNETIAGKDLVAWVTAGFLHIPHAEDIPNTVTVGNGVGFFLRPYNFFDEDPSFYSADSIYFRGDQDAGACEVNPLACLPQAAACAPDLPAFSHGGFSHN
Briefly: Activity on recombinant human VAP-1, HRP-coupled Amplex Red hydrogen peroxide assay. The settings on record: substrate 1 mM benzylamine; compound incubated with enzyme at 37° C. for 30 minutes; pH 7.4; read-out: Inhibitory Activity (IC50, nM) human VAP-1. The procedure, abridged:
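8-point 1:3 dilutions, final DMSO <1%; 30 min enzyme preincubation, 37 °C, pH 7.4 phosphate. Start: 1 mM benzylamine + 200 uM Amplex Red + 1 U/mL HRP. Read ex544/em590 over 1-2 h; % rate decrease vs DMSO control, 4-parameter logistic IC50.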

Test [2] addresses T2, recombinant human MAO-B (monoamine oxidase-B) (Homo sapiens, UniProt P27338).
T2 construct: purchased Sigma-Aldrich
T2 sequence (P27338 1-520): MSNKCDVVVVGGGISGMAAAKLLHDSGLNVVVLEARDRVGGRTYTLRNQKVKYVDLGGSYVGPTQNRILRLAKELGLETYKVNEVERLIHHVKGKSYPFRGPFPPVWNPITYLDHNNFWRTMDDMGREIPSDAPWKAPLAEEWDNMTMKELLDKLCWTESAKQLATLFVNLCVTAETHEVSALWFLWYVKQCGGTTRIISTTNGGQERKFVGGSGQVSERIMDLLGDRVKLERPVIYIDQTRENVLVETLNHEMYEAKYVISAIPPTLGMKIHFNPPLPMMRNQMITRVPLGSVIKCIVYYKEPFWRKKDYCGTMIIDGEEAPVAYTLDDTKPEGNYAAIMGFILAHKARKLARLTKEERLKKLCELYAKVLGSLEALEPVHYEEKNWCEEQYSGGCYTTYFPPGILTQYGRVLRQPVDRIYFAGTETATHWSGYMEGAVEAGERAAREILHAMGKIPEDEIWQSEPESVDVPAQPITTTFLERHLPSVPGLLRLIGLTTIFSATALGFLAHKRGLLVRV
The experiment in a line: Activity on recombinant human MAO-B, method similar to the VAP-1 assay. The conditions noted are these: substrate 1 mM benzylamine; read-out: Inhibitory Activity (IC50, nM) MAO-B. In a few lines: (§1)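 HRP-coupled Amplex Red H2O2 assay, 50 mM sodium phosphate pH 7.4; compounds (8-point 1:3 series, final DMSO <1%) preincubated with enzyme 30 min at 37° C, then 200 uM Amplex Red, 1 U/mL HRP and substrate (MAO-A 0.5 mM tyramine; MAO-B 1 mM benzylamine) added. Resorufin fluorescence (ex 544/em 590 nm) read over 1-2 h; IC50 from four-parameter logistic fit.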

Test [3] has as its target T3, recombinant human DAO (diamine oxidase) (Homo sapiens, UniProt P19801).
T3 construct: purchased R&D systems
T3 sequence (P19801 20-751): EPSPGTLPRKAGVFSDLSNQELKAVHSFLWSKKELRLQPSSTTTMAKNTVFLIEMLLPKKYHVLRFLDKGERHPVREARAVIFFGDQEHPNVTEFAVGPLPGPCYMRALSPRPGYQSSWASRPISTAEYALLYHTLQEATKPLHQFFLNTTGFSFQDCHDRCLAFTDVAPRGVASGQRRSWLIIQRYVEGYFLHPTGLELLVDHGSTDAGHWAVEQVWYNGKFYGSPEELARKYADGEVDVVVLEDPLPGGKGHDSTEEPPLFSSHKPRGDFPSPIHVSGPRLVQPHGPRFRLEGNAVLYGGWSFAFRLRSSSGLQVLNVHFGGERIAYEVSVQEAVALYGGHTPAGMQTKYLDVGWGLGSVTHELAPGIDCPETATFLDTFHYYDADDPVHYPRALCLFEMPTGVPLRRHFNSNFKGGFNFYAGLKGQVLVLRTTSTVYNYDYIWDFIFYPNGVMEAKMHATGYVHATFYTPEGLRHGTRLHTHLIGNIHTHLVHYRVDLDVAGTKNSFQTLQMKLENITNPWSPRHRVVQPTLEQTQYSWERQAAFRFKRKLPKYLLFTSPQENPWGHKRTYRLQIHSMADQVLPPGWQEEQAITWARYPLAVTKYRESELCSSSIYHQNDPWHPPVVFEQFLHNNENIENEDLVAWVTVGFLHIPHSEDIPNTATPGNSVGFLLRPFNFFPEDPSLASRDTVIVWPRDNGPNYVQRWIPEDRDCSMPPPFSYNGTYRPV
Briefly: Activity on recombinant human DAO, method similar to the VAP-1 assay. The settings on record: substrate 1 mM putrescine; read-out: Inhibitory Activity (IC50, nM) DAO. The procedure, abridged: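 Inhibition of recombinant human diamine oxidase (DAO, R&D systems) was assessed by the same approach as the VAP-1 assay, using 1 mM putrescine as substrate. Hydrogen peroxide formed was detected through an HRP-coupled Amplex Red reaction yielding fluorescent resorufin, read at 544 nm excitation and 590 nm emission. IC50 values came from four-parameter logistic fitting in GraphPad Prism.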

Test [4] concerns the target T4, recombinant human MAO-A (monoamine oxidase-A) (Homo sapiens, UniProt P21397).
T4 construct: purchased Sigma-Aldrich
T4 sequence (P21397 1-527): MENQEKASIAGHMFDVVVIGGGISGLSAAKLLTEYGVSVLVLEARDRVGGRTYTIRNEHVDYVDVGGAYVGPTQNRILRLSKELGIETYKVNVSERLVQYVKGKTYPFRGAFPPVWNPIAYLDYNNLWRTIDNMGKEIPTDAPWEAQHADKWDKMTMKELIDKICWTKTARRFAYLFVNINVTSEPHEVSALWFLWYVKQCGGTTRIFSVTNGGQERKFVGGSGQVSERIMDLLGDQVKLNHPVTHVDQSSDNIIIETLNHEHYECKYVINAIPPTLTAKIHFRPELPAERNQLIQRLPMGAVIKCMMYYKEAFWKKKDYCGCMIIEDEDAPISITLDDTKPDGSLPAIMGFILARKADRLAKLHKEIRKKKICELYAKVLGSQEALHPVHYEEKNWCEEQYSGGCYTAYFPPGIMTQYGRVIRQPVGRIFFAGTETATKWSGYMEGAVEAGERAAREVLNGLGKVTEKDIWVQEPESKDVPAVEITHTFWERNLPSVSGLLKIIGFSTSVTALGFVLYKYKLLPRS
Briefly: Activity on recombinant human MAO-A, method similar to the VAP-1 assay. The settings on record: substrate 0.5 mM tyramine; read-out: Inhibitory Activity (IC50, nM) MAO-A. In a few lines:
as §1

With `CSc1ccc(-c2ccc(Cn3cnn(C/C(=C/F)CN)c3=O)s2)cn1` [Example 46, 2-[(2E)-2-(aminomethyl)-3-fluoroprop-2-en-1-yl]-4-(5-[6-(methylsulfanyl)pyridin-3-yl]thiophen-2-ylmethyl)-2,4-dihydro-3H-1,2,4-triazol-3-one hydrochloride], the IC50 (in general, the concentration that inhibits the measured activity by half) in test [1] is 1.3 nM; in test [2] it was 740 nM; in test [3], 380 nM; in test [4], above 10000 nM.

In the case of `CN1C(=O)Cc2cc(-c3ccc(Cn4cnn(C/C(=C/F)CN)c4=O)s3)cnc21` [Example 73, 5-[5-(1-[(2E)-2-(aminomethyl)-3-fluoroprop-2-en-1-yl]-5-oxo-1,5-dihydro-4H-1,2,4-triazol-4-ylmethyl)thiophen-2-yl]-1-methyl-1,3-dihydro-2H-pyrrolo[2,3-b]pyridin-2-one hydrochloride], the IC50 in test [1] was 0.2 nM; in test [2] it was 6100 nM; in test [3], 93 nM; in test [4], above 100000 nM.

For the compound `Cn1cc(C#Cc2ccc(Cn3cnn(C/C(=C/F)CN)c3=O)s2)cn1` [Example 131, 2-[(2E)-2-(aminomethyl)-3-fluoroprop-2-en-1-yl]-4-(5-[(1-methyl-1H-pyrazol-4-yl)ethynyl]thiophen-2-ylmethyl)-2,4-dihydro-3H-1,2,4-triazol-3-one hydrochloride], the IC50 in test [1] is 2.3 nM; in test [2], 240 nM; in test [3] it was 1300 nM; in test [4] it was above 100000 nM.

With `COC(=O)c1ccc(-c2ccc(Cn3cnn(C/C(=C/F)CN)c3=O)s2)cc1` [Example 10, methyl 4-[5-(1-[(2E)-2-(aminomethyl)-3-fluoroprop-2-en-1-yl]-5-oxo-1,5-dihydro-4H-1,2,4-triazol-4-ylmethyl)thiophen-2-yl]benzoate hydrochloride], the IC50 in test [1] was 1.5 nM; in test [2], 77 nM; in test [3], 500 nM; in test [4], above 100000 nM.

As to `Cn1cnc2cc(/C=C/c3ccc(Cn4cnn(C/C(=C/F)CN)c4=O)s3)cnc21` [Example 123, 2-[(E)-2-(aminomethyl)-3-fluoro-allyl]-4-[[5-[(E)-2-(3-methylimidazo[4,5-b]pyridin-6-yl)vinyl]-2-thienyl]methyl]-1,2,4-triazol-3-one hydrochloride], the IC50 in test [1] was 0.6 nM; in test [2], above 10000 nM; in test [3], 250 nM; in test [4] it was above 100000 nM.

Regarding `CN1CC=C(c2ccc(Cn3cnn(C/C(=C/F)CN)c3=O)s2)CC1` [Example 58, 2-[(2E)-2-(aminomethyl)-3-fluoroprop-2-en-1-yl]-4-[5-(1-methyl-1,2,3,6-tetrahydropyridin-4-yl)thiophen-2-yl]methyl-2,4-dihydro-3H-1,2,4-triazol-3-one hydrochloride], the IC50 was 3.9 nM in test [1], above 10000 nM in test [2], 780 nM in test [3] and above 100000 nM in test [4].

In the case of `COc1ccc(C#Cc2ccc(Cn3cnn(C/C(=C/F)CN)c3=O)s2)cc1` [Example 126, 2-[(2E)-2-(aminomethyl)-3-fluoroprop-2-en-1-yl]-4-(5-[(4-methoxyphenyl)ethynyl]thiophen-2-ylmethyl)-2,4-dihydro-3H-1,2,4-triazol-3-one hydrochloride], the half-inhibitory concentration (IC50) in test [1] turned out to be 3.4 nM; in test [2] it was 250 nM; in test [3] it was 1000 nM; in test [4], 57000 nM.

On to `CCS(=O)(=O)c1ccc(-c2ccc(Cn3cnn(C/C(=C/F)CN)c3=O)s2)cc1` [Example 196, 2-[(2E)-2-(aminomethyl)-3-fluoroprop-2-en-1-yl]-4-({5-[4-(ethylsulfonyl)phenyl]thiophen-2-yl}methyl)-2,4-dihydro-3H-1,2,4-triazol-3-one], for which the IC50 was 2.3 nM in test [1], 4700 nM in test [2], 230 nM in test [3] and above 100000 nM in test [4].

For the compound `Cc1cc(-c2ccc(Cn3cnn(C/C(=C/F)CN)c3=O)s2)cc2c1NC(=O)CC2` [Example 77, 6-[5-(1-[(2E)-2-(aminomethyl)-3-fluoroprop-2-en-1-yl]-5-oxo-1,5-dihydro-4H-1,2,4-triazol-4-ylmethyl)thiophen-2-yl]-8-methyl-3,4-dihydroquinolin-2(1H)-one hydrochloride], the IC50 in test [1] was 0.2 nM; in test [2], 1300 nM; in test [3], 460 nM; in test [4], above 100000 nM.

For the compound `NC/C(=C\F)Cn1ncn(Cc2ccc(-c3ccc4c(c3)CCC(=O)N4)s2)c1=O` [Example 75, 6-[5-(1-[(2E)-2-(aminomethyl)-3-fluoroprop-2-en-1-yl]-5-oxo-1,5-dihydro-4H-1,2,4-triazol-4-ylmethyl)thiophen-2-yl]-3,4-dihydroquinolin-2(1H)-one hydrochloride], the IC50 in test [1] is 0.3 nM; in test [2], 2600 nM; in test [3], 950 nM; in test [4] it was above 100000 nM.
